Experimental data: patent US11918565B1, “Treatment of post-operative pain via sciatic nerve block with sustained-release liposomal anesthetic compositions” (Pacira Pharmaceuticals, Inc., priority 2022, dated 2024)
Where a name gives a salt, the structure may show the parent alone.

What was measured:
Type in all cases: in vivo, human
[1] = test system: subjects undergoing bunionectomy (postsurgical pain, operative foot); experiment: NRS pain intensity scores after sciatic (popliteal fossa) nerve block, Phase 3 clinical trial #1
Protocol: Clinical Study #1 was a Phase 3, multicenter, randomized, double-blind, active-controlled study in 180 subjects undergoing bunionectomy. Subjects received a sciatic (in the popliteal fossa) nerve block with a single dose of either […] 266 mg ([…] 133 mg (EXP133), or 0.25% bupivacaine HCl (50 mg; BUP50). The study was conducted in two parts (Part A and Part B). Part A was to be completed and analyzed before enrollment in Part B was initiated. Part A was a 3-arm cohort with 66 subjects undergoing bunionectomy to obtain information on pharmacokinetics (PK), pharmacodynamics (PD), efficacy, and safety. Subjects were randomized (1:1:1) to the EXP266, EXP133, and BUP50 treatment arms. Part B was a 2-arm cohort with 119 subjects undergoing bunionectomy to evaluate the efficacy and safety of […] compared with bupivacaine HCl. The dose of the […] arm in Part B was determined based on the interim analysis of the Part A cohort results. […] An unscheduled pain intensity assessment using the NRS (measured as “On a scale from 0 to 10, where 0 equals no pain and 10 equals the worst possible pain, how much pain are you experiencing in your operative foot right now?”) was to be completed immediately prior to administration of any breakthrough pain medication up to 96 h post-surgery. Medications were administered PRN; opioids were not to be given on a pre-determined schedule. […] All postsurgical analgesics administered, were to be recorded through hospital discharge. […]

[2] = test system: sciatic nerve (sensory block) in subjects undergoing bunionectomy; experiment: Pharmacodynamics: onset and duration of sensory block, clinical trial #1 Part A
Protocol: (§1) Clinical Study #1 was a Phase 3, multicenter, randomized, double-blind, active-controlled study in 180 subjects undergoing bunionectomy. Subjects received a sciatic (in the popliteal fossa) nerve block with a single dose of either EXPAREL 266 mg (EXP266), EXPAREL 133 mg (EXP133), or 0.25% bupivacaine HCl (50 mg; BUP50). The study was conducted in two parts (Part A and Part B). Part A was to be completed and analyzed before enrollment in Part B was initiated. Part A was a 3-arm cohort with 66 subjects undergoing bunionectomy to obtain information on pharmacokinetics (PK), pharmacodynamics (PD), efficacy, and safety. Subjects were randomized (1:1:1) to the EXP266, EXP133, and BUP50 treatment arms. Part B was a 2-arm cohort with 119 subjects undergoing bunionectomy to evaluate the efficacy and safety of EXPAREL compared with bupivacaine HCl. The dose of the EXPAREL arm in Part B was determined based on the interim analysis of the Part A cohort results.
(§2) On the day of surgery, subjects received an ultrasound-guided sciatic (in the popliteal fossa) nerve block with one of the following treatments: • EXP266 arm: subjects randomized to this treatment arm received 20 mL (266 mg) EXPAREL mixed with 10 mL saline (Part A only; per interim analysis was not selected for Part B) • EXP133 arm: subjects randomized to this treatment arm received 10 mL (133 mg) EXPAREL mixed with 20 mL saline (Part A and B) • BUP50 arm: subjects randomized to this treatment arm received 20 mL (50 mg) 0.25% bupivacaine HCl mixed with 10 mL saline (Part A and B)
(§3) Efficacy assessments included pain intensity scores focused on the operative foot using the Numeric Rating Scale (NRS), total postsurgical opioid consumption in OMED, time to first opioid consumption post-surgery, and percentage of opioid-free patients through 96 hours, and worst and average NRS pain intensity scores at 24 h, 48 h, 72 h, and 96 h from end of surgery. Additionally, blood samples for pharmacokinetic (PK) analysis (area under the curve [AUC], maximum plasma concentration [Cmax], time of maximum plasma concentration [Tmax], including early and late Cmax and Tmax (EXP133-ADMIX arm only), apparent terminal elimination half-life [t1/2el], apparent clearance [CL/F], and apparent volume of distribution [Vd/F]). Pharmacodynamic (PD) assessment data, including median time to onset of sensory block and motor block, and median duration of sensory and motor block were collected.
(§4) Pharmacodynamic endpoints included: onset of sensory block, offset of sensory block, duration of sensory block, onset of motor block, offset of motor block, and duration of motor block.

[3] = test system: sciatic nerve (motor block) in subjects undergoing bunionectomy; experiment: Pharmacodynamics: onset and duration of motor block (foot movement), clinical trial #1 Part A
Protocol: as §1, §2, §3, §4

[4] = EXP266 Part A, EXP133 and BUP50 Part A+B

## CCCCN1CCCCC1C(=O)Nc1c(C)cccc1C (stereo not shown) [BUP50, bupivacaine HCl]
[1]; [4]
  mean AUC of average pain over the last 24 h post-surgery from POD1 through POD4: 16.1
  mean AUC of worst pain over the last 24 h post-surgery from POD1 through POD4: 25.2
[1]; post-surgery
  time post-surgery at which mean current pain intensity peaked: 36 h
[2]; 30 min post-dose for BUP50, 2 h for EXP266 and EXP133
  subjects without sensation at the first time point with ≥50%: 59.1%
[2]; 60 h post-dose
  subjects who still did not have complete sensation: all BUP50 subjects had regained sensation
[2]; human, in vivo
  median duration of sensory block: 29.10 h
  median time to sensory block: 0.46 h
  subjects with sensory block onset observed: 63.6%
[2]; post-dose
  first time point at which sensation was not present in ≥50% of subjects: 30 min
[3]; 1 h post-dose for EXP266, 2 h post-dose for EXP133 and BUP50
  subjects without foot movement at the first time point with ≥50%: 54.5%
[3]; 84 h post-dose
  subjects who still did not have complete foot movement: 18.2%
[3]; human, in vivo
  subjects with motor block onset observed: 40.9%
[3]; post-dose
  first time point at which foot movement was not present in ≥50% of subjects: 2 h
